Like-named read-outs stand apart in the source and are kept apart here.
Tests used:
Format in all cases: cell-based
CX-1 cells = assay: selective killing assay, colony number reduced to 50% of control, human colon carcinoma cell line CX-1; conditions: for IC50 / CX-1 (IC50): human colon carcinoma, 24 hours treatment, colony count after 7 to 10 days;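 on all read-outs here: colonies stained with crystal violet and counted, control cells given medium alone, exposure at 37 °C, normal monkey kidney epithelial CV-1 cells as the non-cancer comparator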
CV-1 cells = assay: selective killing assay, colony number reduced to 50% of control, normal monkey kidney epithelial cell line CV-1; conditions: 24 hours treatment; for IC50: Primates; for CV-1 (IC50): Table III
From the text: The control received culture media only.

EJ cells = assay: colony assay of Example 1 with human bladder carcinoma EJ cell line; conditions: for Selectivity: CV-1/EJ; for IC50: Homo sapiens, EJ, 24 h, Table IV, human bladder carcinoma, 24 hours treatment;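 on all read-outs here: colony formation assay with 24 h compound exposure at 37 °C, then 7–10 days drug-free regrowth, colonies stained with crystal violet, controls given medium alone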
[1] = CV-1, Table III, normal monkey kidney epithelial cells, colony count after 7 to 10 days
[2] = normal monkey kidney epithelial cells, colony count after 7 to 10 days

Row | Compound | IC50 (CX-1 cells; Homo sapiens, CX-1, Table III) [µg/mL] | IC50 (CV-1 cells; [1]) [µg/mL] | Selectivity (ratio of IC50 for CV-1 and IC50 for CX-1) (CX-1 cells; CV-1/CX-1) | also measured
1 | CCn1c(=Cc2ccc3ccccc3[n+]2CC)sc(=C2Sc3ccccc3N2C)c1=O [Compound 20] | 0.02 | 2 |  | Selectivity (ratio of IC50 for CV-1 and IC50 for CX-1) (CX-1 cells): 100
2 | CCn1c(=CC2=[N+](CC)C(C)CS2)sc(=C2Sc3ccc4ccccc4c3N2C)c1=O (stereo not drawn) [Compound 309] | 0.01 | 4 | 400 | 
3 | CCn1c(=Cc2oc3cc4ccccc4cc3[n+]2CC)sc(=C2Sc3ccc4ccccc4c3N2C)c1=O [Compound 96] | 0.06 | 20 | 333 | 
4 | CC[N+]1=C(C=c2sc(=C3Oc4ccc5ccccc5c4N3C)c(=O)n2Cc2ccccc2)SCC1 [Compound 314] | 0.05 | 10 | 200 | 
5 | C=CCn1c(=Cc2oc3ccc4ccccc4c3[n+]2C)sc(=C2Oc3c(ccc4ccccc34)N2C)c1=O [Compound 319] |  |  |  | IC50 (CV-1 cells; CV-1, 24 h, Table IV): 6 µg/mL; Selectivity (EJ cells): 300; IC50 (EJ cells): 0.02 µg/mL
6 | CCn1c(=Cc2sc3ccc(OC)cc3[n+]2CC)sc(=C2Sc3ccc4ccccc4c3N2C)c1=O [Compound 95] | 0.04 | 20 | 500 | 
7 | CCN1C(=CC=c2sc(=Cc3sc4c([n+]3CC)CCCC4)n(CC)c2=O)Oc2ccccc21 [C, reference compound] | 0.04 | 2 | 50 | 
8 | CCn1c(=Cc2scc(C)[n+]2CC)sc(=C2Sc3ccccc3N2C)c1=O [Compound 32] | 0.04 | 6 | 150 | 
9 | CCn1c(=Cc2oc3ccc(OC)cc3[n+]2CC)sc(=C2Sc3ccccc3N2C)c1=O [Compound 35] | 0.04 | 6 | 150 | 
10 | CCn1c(=Cc2sc3ccccc3[n+]2CC)sc(=C2Sc3ccc(OC)cc3N2C)c1=O [Compound 47] | 0.04 | 6 | 150 | 
11 | CCn1c(=Cc2sc3c4ccccc4ccc3[n+]2CC)sc(=C2Oc3ccc4ccccc4c3N2C)c1=O [Compound 115] | 0.05 | 6 | 120 | 
12 | CCn1c(=CC2=[N+](CC)CCS2)sc(=C2Sc3ccc4ccccc4c3N2C)c1=O [Compound 86] | 0.05 | 10 | 200 | 
13 | CCn1c(=Cc2sc3c4ccccc4ccc3[n+]2CC)sc(=C2Sc3c(ccc4ccccc34)N2C)c1=O [Compound 99] | 0.1 | 10 | 100 | 
14 | CC[n+]1c(C=c2sc(=C3Sc4ccc5ccccc5c4N3C)c(=O)n2CC(=O)OC)sc2c3ccccc3ccc21 [Compound 311] | 0.03 | 20 | 667 | IC50 (CV-1 cells; CV-1, 24 h, Table IV): 20 µg/mL; Selectivity (EJ cells): 400; IC50 (EJ cells): 0.05 µg/mL
15 | CCn1c(=Cc2sc3ccccc3[n+]2CC)sc(=C2Sc3c(ccc4ccccc34)N2C)c1=O [Compound 98] | 0.05 | 8 | 160 | 
16 | CCn1c(=Cc2sc3ccc4ccccc4c3[n+]2CC)sc(=C2Sc3ccc(Cl)cc3N2C)c1=O [Compound 223] | 0.1 | 20 | 200 | 
17 | CCn1c(=Cc2sc3ccccc3[n+]2CC)sc(=C2SC3=C(CCCC3)N2C)c1=O [Compound 129] | 0.1 | 10 | 100 | 
18 | CC[n+]1c(C=c2sc(=C3Sc4ccccc4N3C)c(=O)n2C2CCCCC2)oc2ccccc21 [Compound 42] | 0.02 | 2 | 100 | 
19 | CCn1c(=Cc2oc3ccccc3[n+]2C)sc(=C2Sc3ccccc3N2C)c1=O [Compound 25] |  |  | 150 | CX-1 (IC50) (CX-1 cells; Table III): 0.04 µg/mL; CV-1 (IC50) (CV-1 cells; [2]): 6 µg/mL

Row | Compound | IC50 (CX-1 cells; Homo sapiens, CX-1, Table III) [µg/mL] | IC50 (CV-1 cells; [1]) [µg/mL] | Selectivity (ratio of IC50 for CV-1 and IC50 for CX-1) (CX-1 cells; CV-1/CX-1) | also measured
20 | CCn1c(=Cc2oc3ccccc3[n+]2CC)sc(=C2Oc3ccccc3N2C)c1=O [Compound 104] | 0.1 | 18 | 180 | 
21 | CCn1c(=Cc2sc3c4ccccc4ccc3[n+]2CC)sc(=C2SC=C(C)N2C)c1=O [Compound 131] | 0.05 | 6 | 120 | 
22 | CCn1c(=Cc2sc3c4ccccc4ccc3[n+]2CC)sc(=C2SCCN2C)c1=O [Compound 121] | 0.1 | 20 | 200 | 
23 | CCn1c(=Cc2oc3ccccc3[n+]2CC)sc(=C2Sc3ccccc3N2C)c1=O [Compound 34] |  |  | 267 | CX-1 (IC50) (CX-1 cells; Table III): 0.03 µg/mL; CV-1 (IC50) (CV-1 cells; [2]): 8 µg/mL
24 | CCn1c(=Cc2[se]c3ccccc3[n+]2CC)sc(=C2Sc3ccc(Cl)cc3N2C)c1=O [Compound 63] |  | 20 | 100 | IC50 (CX-1 cells; CX-1, Table III): 0.2 µg/mL
25 | CCn1c(=Cc2cccc[n+]2CC)sc(=C2Sc3ccccc3N2C)c1=O [Compound 18] | 0.005 | 20 | 4000 | 
26 | CCn1c(=Cc2oc3ccccc3[n+]2CC)sc(=C2Oc3ccc4ccccc4c3N2C)c1=O [Compound 117] | 0.03 | 4 | 133 | 
27 | CCn1c(=Cc2sc3c4ccccc4ccc3[n+]2CC)sc(=C2Sc3ccc4ccccc4c3N2C)c1=O [Compound 91] |  |  | 500 | CX-1 (IC50) (CX-1 cells; Table III): 0.04 µg/mL; CV-1 (IC50) (CV-1 cells; [2]): 20 µg/mL
28 | CCn1c(=Cc2sc3ccc(Cl)cc3[n+]2CC)sc(=C2Sc3ccccc3N2C)c1=O [Compound 40] | 0.03 | 6 | 200 | 
29 | CCn1c(=Cc2oc3ccccc3[n+]2CC)sc(=C2Sc3ccccc3N2C)c1=O [Compound 38] |  |  | 333 | CX-1 (IC50) (CX-1 cells; Table III): 0.03 µg/mL; CV-1 (IC50) (CV-1 cells; [2]): 10 µg/mL
30 | CCn1c(=Cc2sc3ccc4ccccc4c3[n+]2CC)sc(=C2C=Cc3ccccc3N2C)c1=O [Compound 163] | 0.03 | 20 | 667 | 
31 | CCn1c(=Cc2sc3c4ccccc4ccc3[n+]2CC)sc(=C2Sc3ccc(Cl)cc3N2C)c1=O [Compound 54] | 0.05 | 20 | 400 | 
32 | CCn1c(=Cc2cc[n+](CC)c3ccccc23)sc(=C2Sc3ccccc3N2C)c1=O [Compound 24] | 0.01 | 1.5 | 150 | 
33 | CCn1c(=CC2=[N+](C)c3ccccc3C2(C)C)sc(=C2Sc3ccccc3N2C)c1=O [Compound 17] | 0.06 | 10 | 167 | 
34 | CN1C(=c2sc(=Cc3oc4ccccc4[n+]3C)n(C)c2=O)Sc2ccccc21 [Compound 46] |  | 10 | 100 | IC50 (CX-1 cells; CX-1, Table III): 0.1 µg/mL
35 | CCn1c(=CC2=[N+](CC)CCS2)sc(=C2Sc3ccc(OC)cc3N2C)c1=O [Compound 65] | 0.2 | 20 | 100 | 
36 | CCn1c(=Cc2sc3ccccc3[n+]2CC)sc(=C2Oc3ccc(OC)cc3N2C)c1=O [Compound 105] | 0.05 | 6 | 120 | 
37 | CCn1c(=Cc2sc3ccc4ccccc4c3[n+]2CC)sc(=C2Sc3c(ccc4ccccc34)N2C)c1=O [Compound 255] | 0.05 | 5 | 100 | 
38 | CCn1c(=Cc2sc3ccc4ccccc4c3[n+]2CC)sc(=C2Sc3ccc(C(F)(F)F)cc3N2C)c1=O [Compound 307] | 0.05 | 6 | 120 | 
